# In ChEMBL document CHEMBL3507680, “University of Dundee, Gates Library screen for HepG2 cell viability”:
# Test: Human HepG2 cell viability assay in 384 well format
# Type: toxicity, cell-based
# Parameters: dose 125 nL, time 70.5 hour; cytotoxicity at 70.5 h: concentration not given beside the values
# Settings: HepG2 cells, read-out: Inhibition
row,Structure (SMILES),cytotoxicity at 70.5 h
1,CCS(=O)(=O)N1CCC2(CC1)CC(CC(=O)NC1CC1)c1ccccc12 (configuration not stated),17.6%
2,Cc1noc(C)c1CN1CCO[C@H]2CN(Cc3cccnc3)C[C@H]21,-4.34%
3,O=C(c1cocn1)N1C[C@H]2CCC[C@@]2(COCc2cccnc2)C1,-1.51%
4,COCCN1C[C@H]2[C@@H](C1)N(C(=O)CCc1ccccc1)CC[C@H]2OC,-10.6%
5,COCCN1C[C@H]2[C@@H](C1)N(C(=O)c1cccc(OC)c1)CC[C@H]2OC,-2.65%
6,CN1CC(=O)N(c2ccsc2)CC12CCN(C(=O)c1ccc[nH]1)C2 (configuration not stated),8.85%
7,COCC1CN(Cc2ccccn2)Cc2nn(C)cc21 (configuration not stated),-7.74%
8,COC(=O)C1CCN(CC2(c3ccc(C)cn3)CCNCC2)CC1,-2.35%
9,CCN(C(C)=O)C1CCN(c2nccc(CCC(F)(F)F)n2)C1 (configuration not stated),-22.6%
10,Cc1ccc(-n2nc(C)c3c2NC(=O)CC3c2cnc(N)s2)cc1 (configuration not stated),-0.62%
11,Cc1c(C(=O)N2CCCC(C(=O)c3nccn3C)C2)c[nH]c(=O)c1C#N (configuration not stated),-7.06%
12,CCc1c(C(=O)N2CCN(C)[C@@H]3CS(=O)(=O)C[C@@H]32)[nH]c2ccccc12,-0.756%
13,O=C(N[C@@H]1CCN(C(=O)C2CCOCC2)C[C@H]1O)c1ccccn1,-4.74%
14,c1csc(CCNc2nc(-c3ccncc3)nc3c2CCNCC3)c1,-6.1%
15,O=C(CCn1cccn1)N1CC[C@@H](c2ccc3ccccc3c2)[C@H](O)C1,3.07%
16,Cc1ncc(CN2CCC3(CCCN(CC4CCC4)C3)C2)cn1 (configuration not stated),-4.13%
17,CN1CCN(Cc2nnc(C3CCN(C(CO)CO)CC3)n2C)CC1,-23.4%
18,OCCc1cn(CC2CCCN(Cc3nccs3)C2)nn1 (configuration not stated),11.8%
19,CN(C)C1(CNc2nccc(-c3cnn(C)c3)n2)CCSC1 (configuration not stated),-0.261%
20,COCCN1C(=O)[C@H]2CC[C@@H]1CN(C(=O)CCc1n[nH]c(C)c1C)C2,-13.9%
21,CCC[C@H]1CN(Cc2cscn2)C[C@@H]1NC(=O)C1(COC)CCC1,-4.5%

row,Structure (SMILES),cytotoxicity at 70.5 h
1,CCn1c(C2CCCN(S(=O)(=O)C3CC3)C2)nn(CCN(C)C)c1=O (configuration not stated),0.856%
2,CC(C)CN(Cc1ccccn1)Cc1ccccc1OCC(=O)O,-9.42%
3,CCC[C@H]1CN(S(=O)(=O)c2ccc(CC)s2)C[C@@H]1N,18.1%
4,Cc1ccc(-c2noc([C@H](N)CC(C)C)n2)nn1,7.92%
5,NC(=O)c1ccc(-n2ccnc2C2CC2)cc1N1CCCC1,-3.29%
6,COCc1noc(-c2ccc(N3CCCCC3CCCO)nc2)n1 (configuration not stated),-3.48%
7,COCCN1C[C@@H]2[C@@H](OC)CCN(C(=O)Cc3ccccc3)[C@@H]2C1,-1.17%
8,Cc1ncoc1C(=O)N1C[C@H]2CCC[C@@]2(COCc2cccnc2)C1,3.21%
9,Cc1oncc1C(=O)NCc1cc(=O)n2c(n1)CN(C(C)C)CCC2,-4.07%
10,CCCN1CCCn2c(nc(CNC(=O)c3cnoc3C)cc2=O)C1,16.5%
11,O=C(c1ccsc1)N1C[C@H]2CCC[C@@]2(COCc2cccnc2)C1,22.5%
12,c1cnc(N2CCCC3(CCN(CC4CCOC4)CC3)C2)nc1 (configuration not stated),19%
13,O=c1cc(Cn2cncn2)nc2n1CCCN(Cc1ccc(F)cc1)C2,0.75%
14,Cn1ccnc1C(=O)N1CCC2(CC1)CC(Oc1cccnc1)CO2 (configuration not stated),-9.75%
15,COCC1CN(CC2CC2)Cc2nn(CC3CC3)cc21 (configuration not stated),12.3%
16,CN1CCOCC2(CCCN(C(=O)c3ccccc3F)C2)C1 (configuration not stated),13.4%
17,CN1CC(=O)N(c2ccsc2)CC12CCN(C(=O)c1cccn1C)C2 (configuration not stated),-5.46%
18,CN1CC(=O)N(c2ccsc2)CC12CCN(C(=O)CC1CCCC1)C2 (configuration not stated),-0.558%
19,CN1CC(=O)N(c2cccc(F)c2)CC12CCN(CC1CCOCC1)C2 (configuration not stated),5.35%
20,Cc1ccc(N2CCC3(CCN(C(=O)c4ccccn4)CC3)CC2)nn1,-5.97%
21,CN1CCNC(=O)C12CCN(Cc1ccco1)CC2,-8.79%
